Results taken from US6538000B1, “Tricyclic dihydropyrimidine potassium channel openers” (Abbott Laboratories, priority 1999, dated 2003).

What was measured:
[1] = target: potassium channels (Cavia porcellus, UniProt A0A286XYR9); assay: Membrane hyperpolarization (MHP) assay, DiBAC(4)3 FLIPR, primary cultured guinea-pig urinary bladder (GPB) cells; type: cell-based
Method: Compounds were evaluated for potassium channel opening activity using primary cultured guinea-pig urinary bladder (GPB) cells.
For the preparation of urinary bladder smooth muscle cells, urinary bladders were removed from male guinea-pigs (Hartley, Charles River, Wilmington, Mass.) weighing 300-400 g and placed in ice-cold Ca^2+-free Krebs solution (Composition, mM: KCl, 2.7; KH2PO4, 1.5; NaCl, 75; Na2HPO4, 9.6; Na2HPO4.7H2O, 8; MgSO4, 2; glucose, 5; HEPES, 10; pH 7.4). Cells were isolated by enzymatic dissociation as previously described with minor modifications in (Klockner, U. and Isenberg, G., Pflugers Arch. 1985, 405, 329-339), hereby incorporated by reference. […]
Functional activity at potassium channels was measured by evaluating changes in membrane potential using the bis-oxonol dye DiBAC(4)3 (Molecular Probes) in a 96-well cell-based kinetic assay system, Fluorescent Imaging Plate Reader (FLIPR) (K. S. Schroeder et al., J. Biomed. Screen., v. 1 pp. 75-81 (1996)), hereby incorporated by reference. […] With increasing membrane potential (for example, K^+ depolarization), the probe further partitions into the cell; this is measured as an increase in fluorescence due to dye interaction with intracellular lipids and proteins. Conversely, decreasing membrane potential (hyperpolarization by potassium channel openers) evokes a decrease in fluorescence. […]

[2] = target: potassium channels (Sus scrofa, UniProt F1SR11); assay: Functional potassium channel opening activity in isolated bladder strips (field-stimulated twitch); set-up: species or system Landrace pig; details: for Emax: pig, read-out: Efficacy (% P1075), Landrace pig bladder strips, maximal efficacy relative to P1075
Method: Compounds of the present invention were evaluated for functional potassium channel opening activity using tissue strips obtained from Landrace pig bladders.
Landrace pig bladders were obtained from female Landrace pigs of 9-30 kg. Landrace pigs were euthanized with an intraperitoneal injection of pentobarbital solution, Somlethal®, J. A. Webster Inc., Sterling Mass. The entire bladder was removed and immediately placed into Krebs Ringer bicarbonate solution (composition, mM: NaCl, 120; NaHCO3, 20; dextrose, 11; KCl, 4.7; CaCl2, 2.5; MgSO4, 1.5; KH2PO4, 1.2; K2EDTA, 0.01, equilibrated with 5% CO2/95% O2 pH 7.4 at 37° C.). Propranolol (0.004 mM) was included in all of the assays to block β-adrenoceptors. The trigonal and dome portions were discarded. Strips 3-5 mm wide and 20 mm long were prepared from the remaining tissue cut in a circular fashion. The mucosal layer was removed. One end was fixed to a stationary glass rod and the other to a Grass FT03 transducer at a basal preload of 1.0 gram. Two parallel platinum electrodes were included in the stationary glass rod to provide field stimulation of 0.05 Hz, 0.5 milli-seconds at 20 volts. This low frequency stimulation produced a stable twitch response of 100-500 centigrams. Tissues were allowed to equilibrate for at least 60 minutes and primed with 80 mM KCl. A control concentration response curve (cumulative) was generated for each tissue using the potassium channel opener P1075 as the control agonist. […] After a 60 minute rinsing period, a concentration response curve (cumulative) was generated for the test agonist in the same fashion as that used for the control agonist P1075. The maximal efficacy of each compounds (expressed as % relative to P1075) is reported. […] Agonist potencies were also expressed as an index relative to P1075. The index was calculated by dividing the ED50 for P1075 by the ED50 for the test agonist in a given tissue. […]

Sequence of potassium channels (Cavia porcellus, UniProt A0A286XYR9) (A0A286XYR9 1-1546): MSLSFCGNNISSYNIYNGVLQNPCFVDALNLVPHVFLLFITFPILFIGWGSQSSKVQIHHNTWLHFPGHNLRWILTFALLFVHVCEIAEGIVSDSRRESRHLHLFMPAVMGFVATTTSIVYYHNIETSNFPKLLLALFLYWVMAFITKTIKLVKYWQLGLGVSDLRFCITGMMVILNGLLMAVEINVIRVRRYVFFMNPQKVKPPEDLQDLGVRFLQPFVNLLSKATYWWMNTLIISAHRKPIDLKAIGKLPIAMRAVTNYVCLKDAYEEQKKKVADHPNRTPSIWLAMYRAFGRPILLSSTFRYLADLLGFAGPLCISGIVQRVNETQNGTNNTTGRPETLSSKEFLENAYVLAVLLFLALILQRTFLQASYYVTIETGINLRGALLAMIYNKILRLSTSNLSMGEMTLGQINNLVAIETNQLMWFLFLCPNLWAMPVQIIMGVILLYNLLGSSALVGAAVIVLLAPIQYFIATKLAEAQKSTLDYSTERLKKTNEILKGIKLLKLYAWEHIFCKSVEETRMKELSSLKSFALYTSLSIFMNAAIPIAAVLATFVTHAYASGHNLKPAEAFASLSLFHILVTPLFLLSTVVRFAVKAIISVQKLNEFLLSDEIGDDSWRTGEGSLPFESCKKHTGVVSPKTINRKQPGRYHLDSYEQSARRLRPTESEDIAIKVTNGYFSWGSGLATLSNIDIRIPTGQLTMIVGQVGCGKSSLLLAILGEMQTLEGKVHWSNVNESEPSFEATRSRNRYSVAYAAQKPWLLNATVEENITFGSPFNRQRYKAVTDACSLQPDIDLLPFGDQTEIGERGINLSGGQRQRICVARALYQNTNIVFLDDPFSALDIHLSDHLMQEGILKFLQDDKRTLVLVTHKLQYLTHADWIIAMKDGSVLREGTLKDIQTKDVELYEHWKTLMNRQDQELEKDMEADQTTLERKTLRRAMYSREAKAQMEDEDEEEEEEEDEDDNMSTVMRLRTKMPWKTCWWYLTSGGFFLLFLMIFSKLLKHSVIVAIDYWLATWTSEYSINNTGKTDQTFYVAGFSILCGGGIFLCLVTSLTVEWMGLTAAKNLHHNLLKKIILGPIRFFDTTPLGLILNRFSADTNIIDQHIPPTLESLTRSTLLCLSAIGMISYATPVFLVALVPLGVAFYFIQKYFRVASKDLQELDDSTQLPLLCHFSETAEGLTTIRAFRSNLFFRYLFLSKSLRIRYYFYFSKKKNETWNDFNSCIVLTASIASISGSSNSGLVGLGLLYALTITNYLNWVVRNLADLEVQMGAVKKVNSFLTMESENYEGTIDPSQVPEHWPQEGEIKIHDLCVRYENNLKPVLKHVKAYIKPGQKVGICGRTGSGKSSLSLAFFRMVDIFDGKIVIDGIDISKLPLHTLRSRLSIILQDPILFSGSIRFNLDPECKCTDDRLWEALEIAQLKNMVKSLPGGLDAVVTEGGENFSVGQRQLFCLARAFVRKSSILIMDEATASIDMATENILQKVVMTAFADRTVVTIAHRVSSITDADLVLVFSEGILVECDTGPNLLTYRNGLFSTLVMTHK
Sequence of potassium channels (Cavia porcellus, UniProt A0A286XYR9) (Q9JHJ9 whole entry partner): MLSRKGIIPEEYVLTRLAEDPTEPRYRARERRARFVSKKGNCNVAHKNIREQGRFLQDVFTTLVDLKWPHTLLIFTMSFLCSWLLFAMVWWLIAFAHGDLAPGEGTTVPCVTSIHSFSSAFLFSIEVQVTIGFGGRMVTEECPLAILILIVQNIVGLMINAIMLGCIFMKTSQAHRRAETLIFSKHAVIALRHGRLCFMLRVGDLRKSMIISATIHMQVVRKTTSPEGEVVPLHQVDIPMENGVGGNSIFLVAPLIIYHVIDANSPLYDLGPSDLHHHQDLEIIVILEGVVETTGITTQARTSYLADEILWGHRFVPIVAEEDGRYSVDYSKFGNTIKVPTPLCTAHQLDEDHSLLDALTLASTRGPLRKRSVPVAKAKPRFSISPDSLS

O=C1CSCC2=C1C(c1ccc(F)c(Br)c1)n1nccc1N2 (stereo not drawn) [Example 2, 9-(3-Bromo-4-fluorophenyl)-5,9-dihydro-4H-pyrazolo[1,5-a]thiopyrano[3,4-d]pyrimidin-8(7H)-one]
melting point: 160 to 163 °C

O=C1CCCC2=C1C(c1ccc(Cl)c(Cl)c1)n1ncc(Br)c1N2 (stereo not drawn) [Example 48, 3-Bromo-9-(3,4-dichlorophenyl)-5,6,7,9-tetrahydropyrazolo[5.1-b]quinazolin-8(4H)-one]
Maximal Response (% P1075) ([1]; maximal steady-state hyperpolarization in GPB cells, normalized to 10 μM P1075 = 100%): 113 % P1075
EC50 ([1]; membrane hyperpolarization in GPB cells, concentration that elicits 50% of the maximal response for the test sample): 33 nM

CCC(C)(C)NC(=NC#N)Nc1cccnc1 [Example P1075, N″-cyano-N-(tert-pentyl)-N′-(3-pyridinyl)guanidine, reference compound]
effect on stimulated twitch / stimulated contractions of the bladder ([2]; field stimulation 0.05 Hz, 0.5 ms, 20 volts, P1075 10^−9 to 10^−5 M): completely eliminated the stimulated twitch

O=C1CCCC2=C1C(c1ccc(F)c(Br)c1)n1nccc1N2 (single isomer, unassigned; (-)) [Example 15, (−) 9-(3-Bromo-4-fluorophenyl)-5,6,7,9-tetrahydropyrazolo[5,1-b]quinazolin-8(4H)-one]
Emax [2]: 100%

O=C1CCCC2=C1C(c1ccc(Br)c(F)c1)n1nccc1N2 (stereo not drawn) [Example 1, 9-(4-Bromo-3-fluorophenyl)-5,6,7,9-tetrahydropyrazolo[5,1-b]quinazolin-8(4H)-one]
Emax [2]: 96%
